Measurements taken from article PMC6892914, “Interactions of Ionic Liquids and Spirocyclic Compounds with Liposome Model Membranes. A Steady-State Fluorescence Anisotropy Study” (Scientific Reports, 2019).

How the values were obtained:
[1] = Steady-state fluorescence anisotropy of DPH-doped liposomes, POPC/POPS 80:20; format: physicochemical; details: compound 0.2 mM, 5 min incubation at RT
[2] = Steady-state fluorescence anisotropy of DPH-doped liposomes, POPC; format: physicochemical; details: 5 min incubation at RT
Description: (§1) The technique used in the present study was steady-state fluorescence anisotropy spectroscopy (fluorescence anisotropy or anisotropy in the following text). The technique was utilised to detect organisational changes within the lipid bilayer using a fluorescent 1,6-diphenyl-1,3,5-hexatriene (DPH) probe. DPH is advantageous in the present application due to its high quantum yield and its ability to indicate subtle changes in the lipid acyl chain organisation. For general reviews on the technique, see Shinitzky & Barenholz[18] and Lentz[19]. The rod-like hydrophobic probe is rotating within the bilayer structure by Brownian motion and it is located between the hydrophobic acyl chains of the lipids. When the probe-containing liposomes are illuminated with UV-light at a fixed wavelength and a fixed level of polarized light, the probe is first excited and subsequently emits light that is partly depolarized, due to the molecular rotations of the probe. This depolarization can be measured as a numerical value of anisotropy (r), as shown by Eq. 1.1 r=I||−I⊥/IT where I|| and I⊥ are the intensities of emitted light parallel and perpendicular to the plane of excitation, respectively. IT is the total intensity of emitted light.
(§2) A reference anisotropy value for each pure liposome was determined daily. This was performed in order to normalise the liposome batch-to-batch and liposome-aging-dependent variation of the anisotropy values. The anisotropy was measured ten times and the mean ± standard deviation was calculated. Subsequently, the pure liposomes and the compounds under investigation were mixed and incubated at room temperature for 5 min, before measuring the anisotropy.
(§3) The lipids and the DPH probe were dissolved in chloroform as stock solutions and the stocks were mixed to give the target molar proportions for each liposome composition (Table 2). After mixing the chloroform lipid stocks, the lipid mixture was dried as a thin film on test tube walls by evaporating the chloroform using a flow of air, until no solvent was visible. The dried thin film of lipids was kept under vacuum for at least 12 h in a desiccator, in order to remove any traces of solvent. Ultra-pure water was added to reach the target lipid concentration of 4.0 mM. […] The aqueous mixture of DPH, lipids and water were incubated under agitation for 60 min at 65 °C and 75 °C to form the non-cholesterol-containing and cholesterol-containing multilamellar liposomes, respectively. Subsequently, the 4.0 mM liposome stock dispersions were extruded through 100 nm pore-size polycarbonate filters 19 times using an Avanti mini-extruder (Avanti Polar Lipids, Alabaster, AL, USA) in order to obtain unilamellar liposomes.
(§4) The fluorescence anisotropy values were measured using a Horiba Jobin Yvon (Northampton, UK) FluoroMax-4 spectrofluorometer, in L-format. The emission and the excitation […] were always set to the same value (8–10 nm) so that the photon counts/second at the detector were as recommended by the manufacturer (from 500 000 to 2 000 000 counts/second). The excitation and emission wavelengths were 360 nm and 450 nm, respectively. The measurements were performed at 21 ± 1 °C. Physiological temperature was not used, since the interactions between the living organism (Vibrio Fischeri) also takes place at a non-physiological temperature of 15 °C. The maximum 7 °C difference (15 °C vs. 22 °C) was considered acceptable. A reference value for the pure liposomes was measured daily. […] Both concentrations were selected by trial and error.

[3] = Steady-state fluorescence anisotropy of DPH-doped liposomes, POPC/Chol 75:25; format: physicochemical; details: compound 0.2 mM, 5 min incubation at RT
[4] = Steady-state fluorescence anisotropy of DPH-doped liposomes, POPC/POPS/Chol 55:20:25; format: physicochemical; details: compound 0.2 mM, 5 min incubation at RT
[5] = Steady-state fluorescence anisotropy of DPH-doped liposomes, POPC/Chol 75:25; format: physicochemical; details: compound 50 mM, 5 min incubation at RT
Description: as §1, §2, §3
as §4, with “daily. In order to study the interaction between the compounds and the liposomes, the pure liposomes were mixed with the compounds so that the final concentration of the lipids was 20 µM and that of the studied compounds was 50 mM.” for “daily.”

[6] = Steady-state fluorescence anisotropy of DPH-doped liposomes, POPC/POPS 80:20; format: physicochemical; details: compound 50 mM, 5 min incubation at RT
Description: as §1, §2, §3
as §4, with “daily. In order to study the interaction between the compounds and the liposomes, the pure liposomes were mixed with the compounds so that the final concentration of the lipids was 20 µM and that of the studied compounds was 50 mM.” for “daily.”

[7] = Steady-state fluorescence anisotropy of DPH-doped liposomes, POPC/POPS/Chol 55:20:25; format: physicochemical; details: compound 50 mM, 5 min incubation at RT
Description: as §1, §2, §3
as §4, with “daily. In order to study the interaction between the compounds and the liposomes, the pure liposomes were mixed with the compounds so that the final concentration of the lipids was 20 µM and that of the studied compounds was 50 mM.” for “daily.”

[8] = Steady-state fluorescence anisotropy, stated over the liposome compositions; format: physicochemical; details: four liposome compositions; compound 50 mM
Description: as §1
as §2, with “anisotropy. Similar to the reference measurements, the fluorescence anisotropy value after incubation with the ILs was recorded 10 times and the mean ± standard deviation was calculated.” for “anisotropy.”
In this equation r0 is the fundamental anisotropy in the absence of rotational diffusion of the probe, i.e. the maximum anisotropy value achievable using the specific excitation wavelength. At 360 nm r0 = 0.362 for DPH[26]. C(r) relates the molecular shape and the location of the transition dipoles of the rotating probe into one parameter. For spherical probes C(r) = k/v, where k is the Boltzmann constant and v is the effective volume of the probe. Therefore, C(r) would be constant for spherical molecules, but for other shapes, such as the rod-like DPH, the value is dependent on the experimental value of r. In contrast, as experimentally determined by Shinitzky and Barenholtz, the factor C(r)· T· τ = 240 mPa · s is relatively constant at 0–40 °C in membranes doped with DPH probe. T and τ are the temperature during the experiment and lifetime of the excited state, respectively. By substituting r0 = 0.362 and C(r)· T· τ = 240 mPa · s and by further rearranging of the Eqs. 2 and 3 is obtained.3 η=240mPas⋅r/0.362−r
The equation gives the approximate apparent microviscosity (±15%) based on the recorded anisotropy values. The benefit of determining this is the hyperbolic growth of the apparent microviscosity relatively to anisotropy. […]
In order to compare the anisotropy values with the toxicity values in greater detail, the relative change in anisotropy Δr (%) was calculated as given by Eq. 44 Δr=rliposome+toxicant−rpureliposome/rpureliposome where rpure liposome is the daily anisotropy value measured for each pure liposome and r liposome+toxicant the anisotropy value measured after mixing the pure liposome with the compound of interest. […]

[9] = 333 mM; cited from earlier work

| Compound | Relative change in anisotropy, Δr [1] [%] | Relative change in anisotropy, Δr ([2]; compound 0.2 mM) [%] | Relative change in anisotropy, Δr [3] [%] | Relative change in anisotropy, Δr [4] [%] | Relative change in anisotropy, Δr [5] [%] | Relative change in anisotropy, Δr [6] [%] | Relative change in anisotropy, Δr [7] [%] | Relative change in anisotropy, Δr ([2]; compound 50 mM) [%] | Δr, range depending on the liposome composition [8] | changes in fluorescence polarisation [9] [%] |
| --- | --- | --- | --- | --- | --- | --- | --- | --- | --- | --- |
| CC(=O)[O-].CCCCCCCC[P+](C)(CCCCCCCC)CCCCCCCC [[P8881][OAc], Methyltrioctylphosphonium acetate] | -36 | -19 | -41 | -47 | – | – | – | – | – | – |
| C1CCC[N+]2(CC1)CCCCC2.CC(=O)[O-] [[5.6][OAc], 6-Azoniaspiro[5.6]dodecane acetate] | – | – | – | – | -21 | -22 | -27 | -19 | – | – |
| CCN(CC)CC.CS(=O)(=O)O [[TEAH][OMs], Triethylammonium mesylate] | – | – | – | – | 2 | -5 | -4 | 7 | −5% to +7 | – |
| CS(=O)(=O)[O-].[Na+] [NaOMs, Sodium mesylate, reference compound] | – | – | – | – | 6 | 11 | 13 | 17 | 6–17% | – |
| C1CC[N+]2(CC1)CCCC2.CC(=O)[O-] [[4.5][OAc], 5-Azoniaspiro[4.5]decane acetate] | – | – | – | – | -1 | -5 | -6 | 6 | −6% to +6 | – |
| CCO [ethanol] | – | – | – | – | – | – | – | – | – | < 10 |
| C1CC[N+]2(CC1)CCCCC2.CC(=O)[O-] [[5.5][OAc], 6-Azoniaspiro[5.5]undecane acetate] | – | – | – | – | -18 | -18 | -25 | -16 | – | – |
| CN(C)C(=N)N(C)C.CS(=O)(=O)O [[TMGH][OMs], 1,1,3,3-Tetramethylguanidinium mesylate] | – | – | – | – | 3 | 6 | 5 | 11 | 3–11% | – |
| 5-Methyl-1,5,7-triazabicyclo[4.3.0]non-6-enium & 7-Methyl-1,5,7-triazabicyclo[4.3.0]non-5-enium mesylate [[MTBNH][OMs]] | – | – | – | – | -27 | -26 | -36 | -20 | – | – |
| CC(=O)[O-].[Na+] [NaOAc, Sodium acetate, reference compound] | – | – | – | – | 12 | 13 | 12 | 11 | 11–13% | – |
| C1CCC2=NCCCN2CC1.CS(=O)(=O)O [[DBUH][OMs], 1,8-Diazabicyclo[5.4.0]undec-7-enium mesylate] | – | – | – | – | -31 | -33 | -39 | -24 | – | – |
